The pIC50 is −log10 of the IC50, conventionally taken in molar units. A high value points to a low IC50.

Each structure is given as a SMILES string. pIC50: −log10 of the molar value.

This experiment has as its system L1210. The experiment can be described thus: Compound was evaluated for cytotoxic activity on L1210 murine leukemia cells. Format: functional, cell-based. As to conditions: Mus musculus.
With `CCC1(O)CC(=O)OCc2c1cc1n(c2=O)Cc2cc3ccccc3nc2-1` (stereo not drawn), the pIC50 was 7.79.
In the case of `CC[C@@]1(O)C(=O)OCc2c1cc1n(c2=O)Cc2cc3ccccc3nc2-1` [CAMPTOTHECIN] it was 6.90; in that of `CC[C@@]1(O)C(=O)OCc2c1cc1n(c2=O)Cc2cc3c(CN(C)C)c(O)ccc3nc2-1` [TOPOTECAN], 6.22.

Source of the values: ChEMBL document CHEMBL1130519, “BN 80245: An E-ring modified camptothecin with potent antiproliferative and topoisomerase I inhibitory activities” (Bioorg Med Chem Lett, 1997).
